# Laboratory results as given in PubChem BioAssay AID328 (DTP/NCI, 2004).
# “And” between values parts separate entries of the source, which are not always exact repeats. Identical values can stand only once. Toxic doses and inconclusive results are not listed.
# Test system: BDF1 mice, P388 leukemia ip, median survival T/C
# Test: NCI In Vivo Anticancer Drug Screen. Data for tumor model P388 Leukemia (intraperitoneal) in B6D2F1 (BDF1) mice
# Details: endpoint: median survival time, higher = longer survival
# How it was run: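 Transplantable tumour in mice; compound vs vehicle dosing; survival scored; ratio of treated to control reported.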
# [1] = dose: 100.0 mg/kg/injection, schedule: Q04DX003 (ip), vehicle: saline
# [2] = dose: 200.0 mg/kg/injection, schedule: Q04DX003 (ip), vehicle: saline
# [3] = dose: 400.0 mg/kg/injection, schedule: Q04DX003 (ip), vehicle: saline
# [4] = dose: 50.0 mg/kg/injection, schedule: Q01DX009 (ip), vehicle: saline with Tween-80
# [5] = dose: 100.0 mg/kg/injection, schedule: Q01DX009 (ip), vehicle: saline with Tween-80
# [6] = dose: 200.0 mg/kg/injection, schedule: Q01DX009 (ip), vehicle: saline with Tween-80
# [7] = dose: 25.0 mg/kg/injection, schedule: Q01DX009 (ip), vehicle: saline with Tween-80
# [8] = dose: 100.0 mg/kg/injection, schedule: Q04DX003 (ip), vehicle: saline with Tween-80
# [9] = dose: 200.0 mg/kg/injection, schedule: Q04DX003 (ip), vehicle: saline with Tween-80
# [10] = dose: 400.0 mg/kg/injection, schedule: Q04DX003 (ip), vehicle: saline with Tween-80
# [11] = dose: 25.0 mg/kg/injection, schedule: Q01DX009 (ip), vehicle: Klucel (hydroxypropylcellulose) (HPC)
# [12] = dose: 100.0 mg/kg/injection, schedule: Q01DX009 (ip), vehicle: Klucel (hydroxypropylcellulose) (HPC)
# [13] = dose: 200.0 mg/kg/injection, schedule: Q01DX009 (ip), vehicle: Klucel (hydroxypropylcellulose) (HPC)
# [14] = dose: 50.0 mg/kg/injection, schedule: Q01DX009 (ip), vehicle: Klucel (hydroxypropylcellulose) (HPC)
# [15] = dose: 50.0 mg/kg/injection, schedule: Q04DX003 (ip), vehicle: saline with Tween-80
smiles,measurement,setting,value
Cc1cc2c(c(O)c1CN1CCOCC1)C1=C(CCCC1)C(C)(C)O2,T/C,"dose: 1.0 mg/kg/injection, schedule: Q01DX001 (ip), vehicle: Klucel (hydroxypropylcellulose) (HPC)",99 % of control
same,T/C,"dose: 2.0 mg/kg/injection, schedule: Q01DX001 (ip), vehicle: Klucel (hydroxypropylcellulose) (HPC)",112 % of control
same,T/C,"dose: 4.0 mg/kg/injection, schedule: Q01DX001 (ip), vehicle: Klucel (hydroxypropylcellulose) (HPC)",104 % of control
same,T/C,"dose: 8.0 mg/kg/injection, schedule: Q01DX001 (ip), vehicle: Klucel (hydroxypropylcellulose) (HPC)",104 % of control
same,T/C,"dose: 16.0 mg/kg/injection, schedule: Q01DX001 (ip), vehicle: Klucel (hydroxypropylcellulose) (HPC)",109 % of control
same,T/C,"dose: 32.0 mg/kg/injection, schedule: Q01DX001 (ip), vehicle: Klucel (hydroxypropylcellulose) (HPC)",98 % of control
same,T/C,"dose: 64.0 mg/kg/injection, schedule: Q01DX001 (ip), vehicle: Klucel (hydroxypropylcellulose) (HPC)",96 % of control
same,T/C,"dose: 128.0 mg/kg/injection, schedule: Q01DX001 (ip), vehicle: Klucel (hydroxypropylcellulose) (HPC)",106 % of control
same,T/C,"dose: 256.0 mg/kg/injection, schedule: Q01DX001 (ip), vehicle: Klucel (hydroxypropylcellulose) (HPC)",98 % of control
Cc1ccc(NC(=O)Nc2ccccc2Cl)cc1Cl,T/C,[1],104 % of control
same,T/C,[2],95 % of control
same,T/C,[3],95 % of control
CC(C)NC(=O)C12CC3CC(CC(C3)C1)C2,T/C,[4],92 % of control
same,T/C,[5],87 % of control
same,T/C,[6],100 % of control
NC1=NS(=O)(=O)N=C(N)C1=NNc1cccc(Cl)c1,T/C,[4],94 % of control
same,T/C,[5],103 % of control
same,T/C,[6],92 % of control
O=c1cc(O)ccn1CCc1cccs1,T/C,"dose: 12.5 mg/kg/injection, schedule: Q01DX009 (ip), vehicle: saline with Tween-80",109 % of control
same,T/C,[7],109 % of control
same,T/C,[4],121 % of control
same,T/C,[5],105 % of control
same,T/C,[8],114 % of control
same,T/C,[6],112 % of control
same,T/C,[9],110 % of control
same,T/C,"dose: 400.0 mg/kg/injection, schedule: Q01DX009 (ip), vehicle: saline with Tween-80",110 % of control
same,T/C,[10],119 % of control
NNC(=O)c1ccc(Cl)cc1Nc1cccc(Cl)c1,T/C,"dose: 50.0 mg/kg/injection, schedule: Q01DX001 (ip), vehicle: saline with Tween-80",100 % of control
same,T/C,"dose: 100.0 mg/kg/injection, schedule: Q01DX001 (ip), vehicle: saline with Tween-80",100 % of control
same,T/C,"dose: 200.0 mg/kg/injection, schedule: Q01DX001 (ip), vehicle: saline with Tween-80",104 % of control
CCN(CC)c1nc(NC2CCCCC2)c2nc(N(CC)CC)nc(NC3CCCCC3)c2n1,T/C,"dose: 3.13 mg/kg/injection, schedule: Q01DX009 (ip), vehicle: Klucel (hydroxypropylcellulose) (HPC)",101 % of control
same,T/C,"dose: 6.25 mg/kg/injection, schedule: Q01DX009 (ip), vehicle: Klucel (hydroxypropylcellulose) (HPC)",110 % of control
same,T/C,"dose: 12.5 mg/kg/injection, schedule: Q01DX009 (ip), vehicle: Klucel (hydroxypropylcellulose) (HPC)",99 % of control
same,T/C,[11],101 % of control
COC(=O)CCCCC(=O)OCC#CC#CCOC(=O)CCCCC(=O)OC,T/C,[12],104 % of control
same,T/C,"dose: 100.0 mg/kg/injection, schedule: Q04DX003 (ip), vehicle: Klucel (hydroxypropylcellulose) (HPC)",104 % of control
same,T/C,[13],104 % of control
same,T/C,"dose: 200.0 mg/kg/injection, schedule: Q04DX003 (ip), vehicle: Klucel (hydroxypropylcellulose) (HPC)",104 % of control
same,T/C,"dose: 400.0 mg/kg/injection, schedule: Q01DX009 (ip), vehicle: Klucel (hydroxypropylcellulose) (HPC)",109 % of control
same,T/C,"dose: 400.0 mg/kg/injection, schedule: Q04DX003 (ip), vehicle: Klucel (hydroxypropylcellulose) (HPC)",100 % of control
O=C(C[n+]1cc2ccccc2c2ccccc21)c1ccccc1,T/C,[11],104 % of control
same,T/C,"dose: 35.0 mg/kg/injection, schedule: Q01DX009 (ip), vehicle: Klucel (hydroxypropylcellulose) (HPC)",100 % of control and 108 % of control
same,T/C,[14],100 % of control and 120 % of control
same,T/C,"dose: 75.0 mg/kg/injection, schedule: Q01DX009 (ip), vehicle: Klucel (hydroxypropylcellulose) (HPC)",115 % of control
same,T/C,[12],114 % of control
O=C(Nc1ccc(C(=O)O)cc1)Oc1ccc(N(CCCl)CCCl)cc1,T/C,"dose: 12.0 mg/kg/injection, schedule: Q04DX003 (ip), vehicle: saline",163 % of control
same,T/C,"dose: 19.0 mg/kg/injection, schedule: Q04DX003 (ip), vehicle: saline",154 % of control
same,T/C,"dose: 29.0 mg/kg/injection, schedule: Q04DX003 (ip), vehicle: saline with Tween-80",200 % of control
same,T/C,"dose: 45.0 mg/kg/injection, schedule: Q04DX003 (ip), vehicle: saline with Tween-80",235 % of control
same,T/C,"dose: 66.0 mg/kg/injection, schedule: Q04DX003 (ip), vehicle: saline with Tween-80",163 % of control
same,T/C,[8],245 % of control
same,T/C,"dose: 150.0 mg/kg/injection, schedule: Q04DX003 (ip), vehicle: saline with Tween-80",190 % of control
CCNC(C)(C)C(SS(=O)(=O)O)c1ccc(Cl)s1 (centres undefined),T/C,[7],103 % of control
same,T/C,[4],95 % of control and 121 % of control
same,T/C,"dose: 75.0 mg/kg/injection, schedule: Q01DX009 (ip), vehicle: saline with Tween-80",103 % of control
same,T/C,[5],102 % of control
same,T/C,[8],95 % of control
same,T/C,[6],102 % of control
same,T/C,[9],94 % of control
same,T/C,"dose: 300.0 mg/kg/injection, schedule: Q01DX009 (ip), vehicle: saline with Tween-80",101 % of control
O=Cc1ccc(C(=O)O)cc1,T/C,[8],100 % of control
same,T/C,[9],109 % of control
same,T/C,[10],113 % of control
O=[N+]([O-])c1ccc2c(c1)C(Br)c1ccccc1-2 (centres undefined),T/C,[14],90 % of control
same,T/C,[12],118 % of control
same,T/C,[13],118 % of control
CCCCNC(C)(C)C(SSSC(c1ccco1)C(C)(C)NCCCC)c1ccco1 (centres undefined),T/C,[15],115 % of control
same,T/C,[9],120 % of control
CCOC(=O)/C(=C\c1ccc2c(c1)OCO2)NC(=O)c1ccccc1,T/C,"dose: 100.0 mg/kg/injection, schedule: Q01DX001 (ip), vehicle: Klucel (hydroxypropylcellulose) (HPC)",104 % of control
same,T/C,[1],112 % of control
same,T/C,"dose: 200.0 mg/kg/injection, schedule: Q01DX001 (ip), vehicle: Klucel (hydroxypropylcellulose) (HPC)",100 % of control
same,T/C,[2],95 % of control
same,T/C,"dose: 400.0 mg/kg/injection, schedule: Q01DX001 (ip), vehicle: Klucel (hydroxypropylcellulose) (HPC)",100 % of control
same,T/C,[3],95 % of control
CCOC(=O)C(C(C)=O)C(C)C (centres undefined),T/C,"dose: 100.0 mg/kg/injection, schedule: Q01DX005 (ip), vehicle: other",112 % of control
same,T/C,"dose: 200.0 mg/kg/injection, schedule: Q01DX005 (ip), vehicle: other",117 % of control
same,T/C,"dose: 400.0 mg/kg/injection, schedule: Q01DX005 (ip), vehicle: other",109 % of control
CCOC(=O)C(=CN1CCCCCC1)C(=O)OCC,T/C,[8],109 % of control
same,T/C,[9],109 % of control
same,T/C,[10],113 % of control
Cc1ccc(CNc2ccc(I)cc2)cc1,T/C,[8],105 % of control
same,T/C,[9],95 % of control
same,T/C,[10],105 % of control
CCCCCCCC(=O)Nc1cc(C(F)(F)F)ccc1Cl,T/C,"dose: 100.0 mg/kg/injection, schedule: Q04DX003 (ip), vehicle: other",100 % of control
same,T/C,"dose: 200.0 mg/kg/injection, schedule: Q04DX003 (ip), vehicle: other",109 % of control
same,T/C,"dose: 400.0 mg/kg/injection, schedule: Q04DX003 (ip), vehicle: other",104 % of control
COc1ccc(C(O)(CS(C)(=O)=O)c2cccs2)cc1 (centres undefined),T/C,[4],110 % of control
same,T/C,[5],110 % of control
same,T/C,[6],103 % of control
Cc1ccc2c(c1)CCCN2C,T/C,"dose: 25.0 mg/kg/injection, schedule: Q01DX009 (ip), vehicle: saline",114 % of control
same,T/C,"dose: 50.0 mg/kg/injection, schedule: Q01DX009 (ip), vehicle: saline",114 % of control
same,T/C,"dose: 50.0 mg/kg/injection, schedule: Q04DX003 (ip), vehicle: saline",104 % of control
same,T/C,[1],104 % of control
O=C(O)c1cccc(S(=O)(=O)N(CCO)CCO)c1,T/C,[15],100 % of control
same,T/C,[8],90 % of control
same,T/C,[9],95 % of control
C=CC(C)C(C)(OCc1ccccc1)C(=O)O (centres undefined),T/C,"dose: 50.0 mg/kg/injection, schedule: Q01DX005 (ip), vehicle: saline with Tween-80",100 % of control
same,T/C,"dose: 100.0 mg/kg/injection, schedule: Q01DX005 (ip), vehicle: saline with Tween-80",113 % of control
same,T/C,"dose: 200.0 mg/kg/injection, schedule: Q01DX005 (ip), vehicle: saline with Tween-80",106 % of control
